Assay results from the supplement of paper PMC11208160.

assay: recombinant UMI read abundance after kanamycin selection (control-corrected) (log10(CPM+1)); higher = more efficient recombination; extreme values may be limits of the assay; sequences stand for … in AGTGCAGAGAAAATCGGCCAGTTTTCTCTGCCTGCAGTCCGCATGCCGTGGGACCCCTTGGGTTCTAACCTGTTGCCTAGATTTATGCAGCGGACTGCCTTTCTCCCAAAGTGATAAACCGG…AGGTTGGTTTCACT; site = the 11-nt donor
In short: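 Reported values are log10(CPM+1) from a pooled Escherichia coli screen of donor and donor-binding-loop pairs for the IS621 bridge recombinase. Selection used IPTG (0.07 mM) plus kanamycin, against unselected plating, each in two replicates. Recombinant UMIs were amplified across the donor–target junction, sequenced, converted to CPM, averaged over replicates and scaled by control-derived factors.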
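Also: IS621 bridge recombinase in Escherichia coli cells against a fixed T5 target plasmid.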

Sequence | recombinant UMI read abundance (log10)
TATTTCGCATGGACCGGTTTTCCCGGTAATCCGTATTTGTG (site TATTTAGCTCA) | 0.00938
TATTTCGCATGGACCGGTTTTCCCGGTAATCCGTATTTGTG (site TATTTCGCTCA) | 0.00881
TATTTCGCATGGACCGGTTTTCCCGGTAATCCGTATTTGTG (site TATTTGGCTCA) | 0
TATTTCGCATGGACCGGTTTTCCCGGTAATCCGTATTTGTG (site TATTTTGCTCA) | 0.00403
TATTTGCCATGGACCGGTTTTCCCGGTAATCCGTATTTGTG (site TATTTGACTCA) | 0.0205
TATTTGCCATGGACCGGTTTTCCCGGTAATCCGTATTTGTG (site TATTTGCCTCA) | 0.0197
TATTTGCCATGGACCGGTTTTCCCGGTAATCCGTATTTGTG (site TATTTGGCTCA) | 0.00691
TATTTGCCATGGACCGGTTTTCCCGGTAATCCGTATTTGTG (site TATTTGTCTCA) | 0.0226
TATTTGGCATGGACCGGTTTTCCCGGTAATCCGTATTTGAG (site TATTTGGCTCA) | 0.0138
TATTTGGCATGGACCGGTTTTCCCGGTAATCCGTATTTGAG (site TATTTGGCTCC) | 0.00558
TATTTGGCATGGACCGGTTTTCCCGGTAATCCGTATTTGAG (site TATTTGGCTCG) | 0.012
TATTTGGCATGGACCGGTTTTCCCGGTAATCCGTATTTGAG (site TATTTGGCTCT) | 0.00868
TATTTGGCATGGACCGGTTTTCCCGGTAATCCGTATTTGTA (site TATTTGGCTAA) | 0.00533
TATTTGGCATGGACCGGTTTTCCCGGTAATCCGTATTTGTA (site TATTTGGCTCA) | 0.0148
TATTTGGCATGGACCGGTTTTCCCGGTAATCCGTATTTGTA (site TATTTGGCTGA) | 0
TATTTGGCATGGACCGGTTTTCCCGGTAATCCGTATTTGTA (site TATTTGGCTTA) | 0.00725
TATTTGGCATGGACCGGTTTTCCCGGTAATCCGTATTTGTT (site TATTTGGCTAA) | 0.17
TATTTGGCATGGACCGGTTTTCCCGGTAATCCGTATTTGTT (site TATTTGGCTCA) | 0.0085
TATTTGGCATGGACCGGTTTTCCCGGTAATCCGTATTTGTT (site TATTTGGCTGA) | 0
TATTTGGCATGGACCGGTTTTCCCGGTAATCCGTATTTGTT (site TATTTGGCTTA) | 0
TCAAATGCATGGACCGGTTTTCCCGGTAATCCGTATTTGCC (site TCAAATGCTGG) | 0
TCAAGGACATGGACCGGTTTTCCCGGTAATCCGTATTTGCA (site TCAAGGACTTG) | 1.86
TCAAGGCCATGGACCGGTTTTCCCGGTAATCCGTATTTGGT (site TCAAGGCCTAC) | 0.00348
TCACCGACATGGACCGGTTTTCCCGGTAATCCGTATTTGGA (site TCACCGACTTC) | 0.0438
TCACGCCCATGGACCGGTTTTCCCGGTAATCCGTATTTGCT (site TCACGCCCTAG) | 2.1

Sequence | recombinant UMI read abundance (log10)
TCAGAGACATGGACCGGTTTTCCCGGTAATCCGTATTTGTG (site TCAGAGACTCA) | 1.03
TCAGAGACATGGACCGGTTTTCCCGGTAATCCGTATTTGTG (site TCAGAGACTCC) | 0.353
TCAGAGACATGGACCGGTTTTCCCGGTAATCCGTATTTGTG (site TCAGAGACTCG) | 1.44
TCAGAGACATGGACCGGTTTTCCCGGTAATCCGTATTTGTG (site TCAGAGACTCT) | 0.205
TCAGAGCCATGGACCGGTTTTCCCGGTAATCCGTATTTGCG (site TCAGAGACTCG) | 0.00993
TCAGAGCCATGGACCGGTTTTCCCGGTAATCCGTATTTGCG (site TCAGAGCCTCG) | 0.295
TCAGAGCCATGGACCGGTTTTCCCGGTAATCCGTATTTGCG (site TCAGAGGCTCG) | 0.00861
TCAGAGCCATGGACCGGTTTTCCCGGTAATCCGTATTTGCG (site TCAGAGTCTCG) | 2.36
TCAGAGTCATGGACCGGTTTTCCCGGTAATCCGTATTTGCG (site TCAGAGACTCG) | 0.877
TCAGAGTCATGGACCGGTTTTCCCGGTAATCCGTATTTGCG (site TCAGAGCCTCG) | 0.625
TCAGAGTCATGGACCGGTTTTCCCGGTAATCCGTATTTGCG (site TCAGAGGCTCG) | 0.0319
TCAGAGTCATGGACCGGTTTTCCCGGTAATCCGTATTTGCG (site TCAGAGTCTCG) | 3
TCAGTACCATGGACCGGTTTTCCCGGTAATCCGTATTTGTG (site TCAGTACCTCA) | 0.023
TCAGTAGCATGGACCGGTTTTCCCGGTAATCCGTATTTGAT (site TCAGTAGCTAT) | 2.12
TCAGTATCATGGACCGGTTTTCCCGGTAATCCGTATTTGCG (site ACAGTATCTTG) | 0
TCAGTATCATGGACCGGTTTTCCCGGTAATCCGTATTTGCG (site TCAGTATCTCG) | 1.85
TCAGTCCCATGGACCGGTTTTCCCGGTAATCCGTATTTGGT (site TCAGTCCCTAC) | 0
TCATAGACATGGACCGGTTTTCCCGGTAATCCGTATTTGCG (site TCAAAGACTCG) | 0.629
TCATAGACATGGACCGGTTTTCCCGGTAATCCGTATTTGCG (site TCACAGACTCG) | 0.285
TCATAGACATGGACCGGTTTTCCCGGTAATCCGTATTTGCG (site TCAGAGACTCG) | 0.00296
TCATAGACATGGACCGGTTTTCCCGGTAATCCGTATTTGCG (site TCATAGACTCG) | 1.87
TCATAGACATGGACCGGTTTTCCCGGTAATCCGTATTTGGA (site TCATAGACTTC) | 0.712
TCATCAGCATGGACCGGTTTTCCCGGTAATCCGTATTTGAT (site TCATCAGCTAT) | 0.316
TCATCTCCATGGACCGGTTTTCCCGGTAATCCGTATTTGTC (site TCATCTCCTGA) | 0
TCATGATCATGGACCGGTTTTCCCGGTAATCCGTATTTGCC (site TCATGATCTGG) | 0.807

Sequence | recombinant UMI read abundance (log10)
TCATGATCATGGACCGGTTTTCCCGGTAATCCGTATTTGGA (site TCATGATCTTC) | 1.32
TCCAACCCATGGACCGGTTTTCCCGGTAATCCGTATTTGCC (site TCCAACCCTGG) | 0
TCCAACGCATGGACCGGTTTTCCCGGTAATCCGTATTTGAT (site TCCAACGCTAT) | 0
TCCACACCATGGACCGGTTTTCCCGGTAATCCGTATTTGAG (site TCCACACCTCT) | 0.0221
TCCACAGCATGGACCGGTTTTCCCGGTAATCCGTATTTGCG (site TCCACAGCTCG) | 0
TCCACAGCATGGACCGGTTTTCCCGGTAATCCGTATTTGCG (site TCCACCGCTCG) | 0.00793
TCCACAGCATGGACCGGTTTTCCCGGTAATCCGTATTTGCG (site TCCACGGCTCG) | 0.0203
TCCACAGCATGGACCGGTTTTCCCGGTAATCCGTATTTGCG (site TCCACTGCTCG) | 0.0252
TCCACCCCATGGACCGGTTTTCCCGGTAATCCGTATTTGCG (site TCCACCACTCG) | 0.00655
TCCACCCCATGGACCGGTTTTCCCGGTAATCCGTATTTGCG (site TCCACCCCTCG) | 0.0148
TCCACCCCATGGACCGGTTTTCCCGGTAATCCGTATTTGCG (site TCCACCGCTCG) | 0.0184
TCCACCCCATGGACCGGTTTTCCCGGTAATCCGTATTTGCG (site TCCACCTCTCG) | 0.00748
TCCACCGCATGGACCGGTTTTCCCGGTAATCCGTATTTGAG (site TCCACCGCTCA) | 0.0207
TCCACCGCATGGACCGGTTTTCCCGGTAATCCGTATTTGAG (site TCCACCGCTCC) | 0.0231
TCCACCGCATGGACCGGTTTTCCCGGTAATCCGTATTTGAG (site TCCACCGCTCG) | 0.0211
TCCACCGCATGGACCGGTTTTCCCGGTAATCCGTATTTGAG (site TCCACCGCTCT) | 0.0235
TCCACCGCATGGACCGGTTTTCCCGGTAATCCGTATTTGCA (site TCCACCGCTAG) | 0.00852
TCCACCGCATGGACCGGTTTTCCCGGTAATCCGTATTTGCA (site TCCACCGCTCG) | 0
TCCACCGCATGGACCGGTTTTCCCGGTAATCCGTATTTGCA (site TCCACCGCTGG) | 0
TCCACCGCATGGACCGGTTTTCCCGGTAATCCGTATTTGCA (site TCCACCGCTTG) | 0.167
TCCACCGCATGGACCGGTTTTCCCGGTAATCCGTATTTGTG (site TCCACCGCTCA) | 0.0465
TCCACCGCATGGACCGGTTTTCCCGGTAATCCGTATTTGTG (site TCCACCGCTCC) | 0.00628
TCCACCGCATGGACCGGTTTTCCCGGTAATCCGTATTTGTG (site TCCACCGCTCG) | 0.00762
TCCACCGCATGGACCGGTTTTCCCGGTAATCCGTATTTGTG (site TCCACCGCTCT) | 0.0682
TCCACTGCATGGACCGGTTTTCCCGGTAATCCGTATTTGCG (site TCCACAGCTCG) | 0
